Laboratory results as given in patent publication US11091769B2, “Development and use of modified plants and seeds that are resistant to herbicides and environmental stress” (Texas State University, priority 2017, dated 2021).

Key:
[1] = system: Arabidopsis seedlings and plants; test: In planta chlorate sensitivity test; format: in vivo, Arabidopsis thaliana
Protocol: For chlorate sensitivity testing at the seedling stage, seeds were plated onto either control media or media containing 1-1.5 mM sodium chlorate. Plates were incubated under continuous light at 21° C. for 9 days. After the incubation, representative images were acquired using DSLR (PENTAX) camera.
(§1) For chlorate and picloram sensitivity testing at the adult stage, 7 day-old seedlings were transferred to soil (Fafard growing mix 2) and grown under continuous light for an additional 12 days. To test chlorate sensitivity, plants were then irrigated with 1 mM sodium chlorate solution on alternating days. Chlorate induced leaf bleaching were examined and imaged after 10-12 days. To test picloram sensitivity, plants were sprayed with 200 g/ha of picloram. Images were acquired 14-18 days after the treatment.

[2] = system: Arabidopsis seedlings (primary root growth); test: Root growth inhibition assay; format: in vivo, Arabidopsis thaliana; conditions: for primary root growth sensitivity of pic30 mutants: pic30-1, pic30-2 and pic30-3, incremental concentrations; for root growth sensitivity of PIC30-OX lines: all four PIC30-OX lines; for inhibition at 0.1 µM: 100 nM picloram; for primary root growth inhibition: media containing 10 pM picloram
Protocol: For root growth inhibition assays, 4-5 day old seedlings were transferred to control media and media containing indicated concentrations of different auxins. Primary root lengths were measured after 4 days of incubation, and percentage root growth inhibition was calculated.

[3] = system: DR5::GFP auxin sensor; test: Auxin induced DR5::GFP expression; format: in vivo, Arabidopsis thaliana; conditions: pic30-3 crossed with DR5::GFP; 5 day-old seedlings; 20 hours incubation
Protocol: To test auxin induced DR5::GFP expression, 5 day-old seedlings were transferred to control media and media containing indicated concentrations of different auxins. Plates were incubated for 20 hours at 21° C. under continuous light. Confocal images were acquired after the incubation period.
Confocal images were acquired using either 20× water immersion or 60× oil immersion lenses with Fluoview™ FV1000 laser scanning confocal microscope (Olympus). While making a quantitative comparison between one or more confocal images, similar laser intensity and transmittance light were used.

[4] = system: Arabidopsis plants; test: Foliar picloram sensitivity test at the adult stage; format: in vivo, Arabidopsis thaliana
Protocol: as §1, with “To test picloram sensitivity, plants were sprayed with 200 g/ha of picloram.” left out

[5] = system: Arabidopsis apical root sections (PIC30 transporter); test: In planta radioactive transport assay; design: species or system Arabidopsis thaliana
Protocol: In planta transport assays were performed according to a protocol described elsewhere (Ito and Gray, Plant Physiology 142, 63-74, 2006) with few modifications. 15 mm root sections (at root tip) from 9 day-old seedlings were excised and incubated in transport assay buffer (TAB, 20 mM MES-KOH, pH 5.6, 10 mM sucrose and 0.5 mM CaCl2) for 30 minutes. Root sections were then transferred to the TAB containing 1.5 nM of ^14C picloram and 10 pM of unlabeled picloram or 7.9 nM of ^3H IAA and incubated for 1-6 hours at room temperature. Following thorough rinsing with cold TAB buffer, root sections were transferred to scintillation vials containing 1 ml of scintillation liquid. Radioactivity was measured using scintillation counter (Beckman Coulter, Calif.).

[6] = system: PIC30pro::PIC30-GUS expression; test: PIC30-GUS expression, quantitative MUG assay; format: in vivo, Arabidopsis thaliana; conditions: 5 day old PIC30pro::PIC30-GUS seedlings; 25 pM picloram; indicated time intervals
Protocol: To study the effect of picloram on PIC30 expression, 5 day old PIC30pro::PIC30-GUS seedlings were treated with 25 pM picloram in liquid media. They were incubated under continuous light at 21° C. without shaking, and samples were collected at different time intervals and frozen in liquid nitrogen. PIC30-GUS expression was determined through quantitative MUG assay.
Quantification of GUS expression was performed by fluorometric MUG (4-methylumbelliferyl-beta-D-glucuronide) assay following protocol described elsewhere (Parry et al. The Plant Cell 18, […], 2006) and the fluorescence was measured using a Fluorometer (Modulus, Turner Biosystems).

[O-][Cl+2]([O-])O [chlorate, sodium chlorate]
chlorate sensitivity ([1]; PIC30-OX lines, adult stage, irrigated with chlorate solution): wild-type sensitivity
chlorate sensitivity ([1]; all four PIC30-OX lines, seedling stage): hypersensitivity
chlorate induced cotyledon and leaf bleaching ([1]; pic30-1, seedling and adult stages): pronounced cotyledon and leaf bleaching
chlorate induced cotyledon and leaf bleaching ([1]; pic30-2, seedling and adult stages): pronounced cotyledon and leaf bleaching
chlorate induced necrosis and leaf bleaching ([1]; pic30-3, seedling and adult stages): insensitive
chlorate induced cotyledon and leaf bleaching ([1]; wild type, seedling (1-1.5 mM sodium chlorate, 9 days) and adult (1 mM irrigation) stages): pronounced cotyledon and leaf bleaching

O=C(O)COc1ccc(Cl)cc1Cl [2,4-D, 2,4-dichlorophenoxyacetic acid]
primary root growth sensitivity of pic30 mutants ([2]; 4 days incubation): wild type sensitivity
DR5::GFP expression in pic30-3 [3]: upregulated

O=C(O)Cc1cccc2ccccc12 [1-NAA, 1-Naphthaleneacetic acid]
root growth sensitivity of PIC30-OX lines ([2]; 4 days incubation): wild-type sensitivity
primary root growth sensitivity of pic30 mutants ([2]; 4 days incubation): wild type sensitivity

Nc1cc(Cl)nc(C(=O)O)c1Cl [aminopyralid]
primary root growth sensitivity of pic30 mutants ([2]; 4 days incubation): insensitive
DR5::GFP expression in pic30-3 [3]: not

Nc1c(Cl)c(Cl)nc(C(=O)O)c1Cl [picloram]
inhibition at 0.1 µM ([2]; Arabidopsis thaliana, 96 h, PIC30-OX lines, 4 days incubation): 87 to 89%
inhibition at 10 pM ([2]; Arabidopsis thaliana, 96 h, four PIC30-OX lines (PIC30-GFP in pic30-3), 10 pM picloram, 4 days incubation): 97 to 98%
inhibition at 0.1 µM ([2]; Arabidopsis thaliana, 96 h, pic30-3, 4 days incubation): ~10%
inhibition at 0.1 µM ([2]; Arabidopsis thaliana, 96 h, wild type, 4 days incubation): ~10%
primary root growth sensitivity of pic30 mutants ([2]; 4 days incubation): highly insensitive
primary root growth inhibition ([2]; pic30-3 mutant, 4 days incubation): 46%
primary root growth sensitivity of pic30-1-OX lines ([2]; three independent homozygous pic30-1-OX lines in wild type background): insensitive
primary root growth inhibition ([2]; wild type, 4 days incubation): approximately 73%
response to foliar treatment ([4]; PIC30-OX adult plants, 100 g/ha): hypersensitive
response to foliar treatment ([4]; pic30-1, pic30-2, pic30-3 adult plants, 200 g/ha sprayed): highly insensitive
DR5::GFP expression in pic30-3 [3]: not
picloram uptake in pic30-3 versus wild type root sections ([5]; pic30-3, 14C-picloram, 15 mm root sections of 9 day-old seedlings): significantly lower
picloram uptake relative to wild type roots ([5]; two PIC30-OX lines, 14C-picloram, 15 mm apical root sections): 26-30 times
effect on PIC30 gene expression [6]: did not have influence

O=C(O)Cc1c[nH]c2ccccc12 [IAA, indole-3-acetic acid]
root growth sensitivity of PIC30-OX lines ([2]; 4 days incubation): wild-type sensitivity
primary root growth sensitivity of pic30 mutants ([2]; 4 days incubation): wild type sensitivity
DR5::GFP expression in pic30-3 [3]: upregulated
IAA uptake, wild type versus pic30-3 ([5]; 3H-IAA, 15 mm apical root sections): no difference
